The compounds below were run against T1, FAE (Acetivibrio thermocellus, UniProt P10478) (assay: Inhibition of XynZ FAE by ferulic acid and sugars).
T1 construct: made in house; host or cells: E. coli BL21(DE3)
Type: biochemical, Clostridium thermocellum

T1 sequence (P10478 20-286): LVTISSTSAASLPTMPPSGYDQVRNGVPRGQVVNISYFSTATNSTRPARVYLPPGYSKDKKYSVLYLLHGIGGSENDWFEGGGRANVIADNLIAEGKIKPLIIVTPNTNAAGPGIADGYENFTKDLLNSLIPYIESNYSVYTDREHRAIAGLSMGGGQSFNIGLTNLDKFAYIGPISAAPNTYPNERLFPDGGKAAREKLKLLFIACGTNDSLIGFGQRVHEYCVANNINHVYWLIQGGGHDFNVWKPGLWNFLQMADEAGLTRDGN

Compound | Inhibition of FAE
O=C[C@@H](O)[C@H](O)[C@H](O)CO [arabinose] | not
COc1cc(/C=C/C(=O)O)ccc1O [ferulic acid] | inhibited
O=C[C@H](O)[C@@H](O)[C@H](O)CO [xylose] | not
